Assay [1] deals with Ralstonia solanacearum. Format: cell-based.
The test system of assay [2] is Ralstonia solanacearum. Type of assay: cell-based. This is another data set of the same source.

With `CC(C)=CCC/C(C)=C/CO` [Geraniol, geraniol], in the assay on Ralstonia solanacearum [1] (compared to untreated control), the “reduction of population of Ralstonia solanacearum” value was found to be 89.5%. Further, the volatile bactericidal activity entry in the assay on Ralstonia solanacearum [1] (in words) is “volatile bactericidal activity”.

On to `Cc1ccc(C(C)C)c(O)c1` [Thymol, thymol], for which, in the assay on Ralstonia solanacearum [2] (100 μg/ml concentration, FIG. 2), the “inhibition of the development of R. solanacearum colonies” value is listed as “entirely inhibited”. Further, the “efficacy against Rs” value in the assay with Ralstonia solanacearum [2] (tested in vitro and in greenhouse, vapor effect for the oils) is “effective”.

Source of the values: patent US7018641B1, “Materials and methods for the control of plant pathogens” (priority 2000, dated 2006).
